Columns and labels:
[1] = test system: BRAFV600E/K mutant advanced or malignant melanoma; conditions: cited from earlier work
[2] = test system: primary melanomas from patients; assay: xenograft assay, digitoxin and/or GSK1120212; assay type: in vivo, NSG mice; conditions: 0.5 mg/kg/day each agent by oral gavage; melanomas from multiple patients, with and without BRAF mutations
Method: Melanoma cells were injected subcutaneously in the right flanks of immunocompromised NSG mice. When tumors became palpable, mice were randomized to four different treatments. […] Control mice received vehicle only (200 μl 0.5% promethylcellulose, 0.2% Tween80 and 5% DMSO per day). Tumors were measured every 2-3 days with calipers.
In these experiments, metastatic melanoma cells were injected subcutaneously in the right flanks of immunocompromised NSG mice. When tumors became palpable, mice were randomized to four different treatments. […] Control mice received vehicle only (200 μl 0.5% promethylcellulose, 0.2% Tween80 and 5% DMSO per day). Tumors were measured every 2-3 days with calipers and bioluminescence imaging was performed when the diameter of the tumors in vehicle treated mice reached 2 cm.

[3] = 4 hours after 0.5 mg/kg injection (FIG. 1C)
[4] = human, in vivo; cited from earlier work
[5] = human, in vivo; cited from earlier work; remark: listed apart in the source

CC(=O)Nc1cccc(-n2c(=O)n(C3CC3)c(=O)c3c(Nc4ccc(I)cc4F)n(C)c(=O)c(C)c32)c1 [Trametinib]
chorioretinopathy ([1]; MEKi class effect): < 1% | decreased ejection fraction ([1]; MEKi class effect): 7% | Grade 3 hypertension ([1]; Trametinib arm): 12% | Grade 3 rash ([1]; Trametinib arm): 7%

C[C@H]1O[C@@H](O[C@H]2[C@@H](O)C[C@H](O[C@H]3[C@@H](O)C[C@H](O[C@H]4CC[C@@]5(C)[C@H](CC[C@@H]6[C@@H]5CC[C@]5(C)[C@@H](C7=CC(=O)OC7)CC[C@]65O)C4)O[C@@H]3C)O[C@@H]2C)C[C@H](O)[C@@H]1O [digitoxin]
growth of human melanoma xenografts [2]: slowed the growth | doses in the plasma of mice [3]: fell within the therapeutic range in humans

C[C@H]1O[C@@H](O[C@H]2[C@@H](O)C[C@H](O[C@H]3[C@@H](O)C[C@H](O[C@H]4CC[C@@]5(C)[C@H](CC[C@@H]6[C@@H]5C[C@@H](O)[C@]5(C)[C@@H](C7=CC(=O)OC7)CC[C@]65O)C4)O[C@@H]3C)O[C@@H]2C)C[C@H](O)[C@@H]1O [digoxin]
half-life [4]: about 36 hours | frequency of common adverse effects (loss of appetite, nausea, vomiting, diarrhea etc.) [5]: ≥ 1 % of patients | plasma concentration at which adverse effects are rare [5]: < 0.8 ng/mL

— patent US9572828B2, “Treatment for melanoma” (The Board of Regents of the University of Texas System, priority 2013, dated 2017)
